{
  "source": "the NIST ThermoML archive (doi:10.1016/j.fluid.2007.01.042)",
  "details": "Liquid, Ebulliometric method (Recirculating still)",
  "note": "Numbers after ± are expanded uncertainties.",
  "data": [
    {"smiles": "c1ccccc1", "note": "[benzene]", "values": [
      {"measurement": "vapor or sublimation pressure", "setting": "325.6 K", "result": "40 ± 0.04", "unit": "kPa"},
      {"measurement": "vapor or sublimation pressure", "setting": "333.56 K", "result": "53.33 ± 0.04", "unit": "kPa"},
      {"measurement": "vapor or sublimation pressure", "setting": "340.06 K", "result": "66.66 ± 0.05", "unit": "kPa"},
      {"measurement": "vapor or sublimation pressure", "setting": "345.61 K", "result": "79.99 ± 0.06", "unit": "kPa"},
      {"measurement": "vapor or sublimation pressure", "setting": "350.5 K", "result": "93.32 ± 0.06", "unit": "kPa"}
    ]},
    {"smiles": "CCCCCCC", "note": "[heptane]", "values": [
      {"measurement": "vapor or sublimation pressure", "setting": "342.77 K", "result": "40 ± 0.05", "unit": "kPa"},
      {"measurement": "vapor or sublimation pressure", "setting": "351.08 K", "result": "53.33 ± 0.07", "unit": "kPa"},
      {"measurement": "vapor or sublimation pressure", "setting": "357.85 K", "result": "66.66 ± 0.08", "unit": "kPa"},
      {"measurement": "vapor or sublimation pressure", "setting": "363.64 K", "result": "79.99 ± 0.1", "unit": "kPa"},
      {"measurement": "vapor or sublimation pressure", "setting": "368.7 K", "result": "93.32 ± 0.11", "unit": "kPa"}
    ]},
    {"smiles": "ClC(Cl)(Cl)Cl", "note": "[tetrachloromethane]", "values": [
      {"measurement": "vapor or sublimation pressure", "setting": "322.04 K", "result": "40 ± 0.04", "unit": "kPa"},
      {"measurement": "vapor or sublimation pressure", "setting": "330.08 K", "result": "53.33 ± 0.04", "unit": "kPa"},
      {"measurement": "vapor or sublimation pressure", "setting": "336.65 K", "result": "66.66 ± 0.05", "unit": "kPa"},
      {"measurement": "vapor or sublimation pressure", "setting": "342.21 K", "result": "79.99 ± 0.06", "unit": "kPa"},
      {"measurement": "vapor or sublimation pressure", "setting": "347.09 K", "result": "93.32 ± 0.06", "unit": "kPa"}
    ]},
    {"smiles": "C1CCCCC1", "note": "[cyclohexane]", "values": [
      {"measurement": "vapor or sublimation pressure", "setting": "325.65 K", "result": "40 ± 0.04", "unit": "kPa"},
      {"measurement": "vapor or sublimation pressure", "setting": "333.77 K", "result": "53.33 ± 0.04", "unit": "kPa"},
      {"measurement": "vapor or sublimation pressure", "setting": "340.43 K", "result": "66.66 ± 0.05", "unit": "kPa"},
      {"measurement": "vapor or sublimation pressure", "setting": "346.11 K", "result": "79.99 ± 0.06", "unit": "kPa"},
      {"measurement": "vapor or sublimation pressure", "setting": "351.12 K", "result": "93.32 ± 0.06", "unit": "kPa"}
    ]},
    {"smiles": "Cc1cccc(C)c1", "note": "[1,3-dimethylbenzene]", "values": [
      {"measurement": "vapor or sublimation pressure", "setting": "380.51 K", "result": "40 ± 0.09", "unit": "kPa"},
      {"measurement": "vapor or sublimation pressure", "setting": "389.66 K", "result": "53.33 ± 0.11", "unit": "kPa"},
      {"measurement": "vapor or sublimation pressure", "setting": "397.13 K", "result": "66.66 ± 0.14", "unit": "kPa"},
      {"measurement": "vapor or sublimation pressure", "setting": "403.51 K", "result": "79.99 ± 0.17", "unit": "kPa"},
      {"measurement": "vapor or sublimation pressure", "setting": "409.09 K", "result": "93.32 ± 0.19", "unit": "kPa"}
    ]},
    {"smiles": "CC1CCCCC1", "note": "[methylcyclohexane]", "values": [
      {"measurement": "vapor or sublimation pressure", "setting": "344.18 K", "result": "40 ± 0.09", "unit": "kPa"},
      {"measurement": "vapor or sublimation pressure", "setting": "352.8 K", "result": "53.33 ± 0.11", "unit": "kPa"},
      {"measurement": "vapor or sublimation pressure", "setting": "359.85 K", "result": "66.66 ± 0.14", "unit": "kPa"},
      {"measurement": "vapor or sublimation pressure", "setting": "365.87 K", "result": "79.99 ± 0.17", "unit": "kPa"},
      {"measurement": "vapor or sublimation pressure", "setting": "371.15 K", "result": "93.32 ± 0.19", "unit": "kPa"}
    ]},
    {"smiles": "Cc1ccccc1Cl", "note": "[2-chlorotoluene]", "values": [
      {"measurement": "vapor or sublimation pressure", "setting": "398.81 K", "result": "40 ± 0.05", "unit": "kPa"},
      {"measurement": "vapor or sublimation pressure", "setting": "408.41 K", "result": "53.33 ± 0.06", "unit": "kPa"},
      {"measurement": "vapor or sublimation pressure", "setting": "416.25 K", "result": "66.66 ± 0.08", "unit": "kPa"},
      {"measurement": "vapor or sublimation pressure", "setting": "422.91 K", "result": "79.99 ± 0.09", "unit": "kPa"},
      {"measurement": "vapor or sublimation pressure", "setting": "428.76 K", "result": "93.32 ± 0.11", "unit": "kPa"}
    ]},
    {"smiles": "Cc1ccc(Cl)cc1", "note": "[4-chlorotoluene]", "values": [
      {"measurement": "vapor or sublimation pressure", "setting": "401.71 K", "result": "40 ± 0.09", "unit": "kPa"},
      {"measurement": "vapor or sublimation pressure", "setting": "411.34 K", "result": "53.33 ± 0.11", "unit": "kPa"},
      {"measurement": "vapor or sublimation pressure", "setting": "419.2 K", "result": "66.66 ± 0.14", "unit": "kPa"},
      {"measurement": "vapor or sublimation pressure", "setting": "425.9 K", "result": "79.99 ± 0.17", "unit": "kPa"},
      {"measurement": "vapor or sublimation pressure", "setting": "431.77 K", "result": "93.32 ± 0.19", "unit": "kPa"}
    ]},
    {"smiles": "CCc1ccccc1", "note": "[ethylbenzene]", "values": [
      {"measurement": "vapor or sublimation pressure", "setting": "377.54 K", "result": "40 ± 0.09", "unit": "kPa"},
      {"measurement": "vapor or sublimation pressure", "setting": "386.69 K", "result": "53.33 ± 0.11", "unit": "kPa"},
      {"measurement": "vapor or sublimation pressure", "setting": "394.14 K", "result": "66.66 ± 0.14", "unit": "kPa"},
      {"measurement": "vapor or sublimation pressure", "setting": "400.51 K", "result": "79.99 ± 0.17", "unit": "kPa"},
      {"measurement": "vapor or sublimation pressure", "setting": "406.12 K", "result": "93.32 ± 0.19", "unit": "kPa"}
    ]},
    {"smiles": "CCOC(C)=O", "note": "[ethyl acetate]", "values": [
      {"measurement": "vapor or sublimation pressure", "setting": "324.44 K", "result": "40 ± 0.04", "unit": "kPa"},
      {"measurement": "vapor or sublimation pressure", "setting": "331.9 K", "result": "53.33 ± 0.05", "unit": "kPa"},
      {"measurement": "vapor or sublimation pressure", "setting": "337.99 K", "result": "66.66 ± 0.06", "unit": "kPa"},
      {"measurement": "vapor or sublimation pressure", "setting": "343.18 K", "result": "79.99 ± 0.07", "unit": "kPa"},
      {"measurement": "vapor or sublimation pressure", "setting": "347.7 K", "result": "93.32 ± 0.08", "unit": "kPa"}
    ]}
  ]
}
